Assay results taken from US20220226470A1, “ANTIBODIES AND METHODS FOR TREATMENT OF INFLUENZA A INFECTION” (HUMABS BIOMED SA, priority 2019, published 2022).

Tests used:
Assay in all cases: microbe, parasite or virus in culture
Type in all cases: cell-based
H3N2 virus = conditions: Influenza A virus, H3N2, MDCK
H1N1 virus = conditions: Influenza A virus, H1N1, MDCK
H3N2 and H1N1 strains = conditions: Influenza A virus, MDCK, read-out: relative calculated IC50

CCOC(=O)C1=C[C@@H](OC(CC)CC)[C@H](NC(C)=O)[C@@H](N)C1 [oseltamivir, reference compound]
IC50 (H3N2 virus): 7 nM
IC50 (H1N1 virus): 9.1 nM

CC(=O)N[C@H]1[C@H]([C@H](O)[C@H](O)CO)OC(C(=O)O)=C[C@@H]1N=C(N)N [zanamivir, reference compound]
IC50 (H3N2 and H1N1 strains): 10.7 to 13.7 nM
